From patent US20110059869A1, “Method for Increasing Enzymatic Reactivity” (RIKEN, priority 2008, published 2011)

Experiments:
[1] = State of streptavidin bead reaction solution during enzymatic reaction; type: physicochemical; conditions: 0.6 M additive; extended / three hours restriction enzyme reaction
Text: Thus, with no nonuniformity in enzymatic activity, the various enzymatic reactions were promoted and the quantity of target DNA recovered increased.
This was attributed to characteristics such as the viscosity and diffusing effect of trehalose or sorbitol.

[2] = system: HindIII; assay: DNA fragment II HindIII cleavage reactions on bead and plate surfaces with added substances; type: biochemical; conditions: 0.6 M sorbitol; beads and plate; not of the same degree as trehalose
Method: The effect of the presence of substances other than trehalose on enzymatic activity was examined for enzymatic reactions on the surface of a support. Sorbitol was employed as the added reagent. Trehalose was also added and a sorbitol+trehalose reaction system was examined (Scheme 7).
HindIII cleavage reactions were conducted on biotin-labeled DNA fragment II (Seq. ID No. 5, Scheme 4) on the surface of beads by adding trehalose, glucose, sorbitol, and betaine, and the 104 by DNA fragment released was detected. Paramagnetic streptavidin beads were washed with accessory 1× binding buffer, recovered with a magnetic stand to remove the supernatant, and suspended in the same buffer. […] The precipitate of DNA fragments thus obtained was dissolved in 1× TE (pH 7.5) and analyzed with Bioanalyzer DNA 1000 assay (Agilent Technologies).
Trehalose and sorbitol were added and a HindIII cleavage reaction was conducted on a horizontal plate surface on biotin-labeled DNA fragment II (Seq. ID No. 5, Scheme 4) and the 104 by DNA fragments that were released were detected. […] The precipitate of DNA fragments obtained was dissolved in 1× TE (pH 7.5) and analyzed with Bioanalyzer DNA 1000 assay (Agilent Technologies).

Compound: OC[C@@H](O)[C@@H](O)[C@H](O)[C@@H](O)CO [sorbitol, D(+) sorbitol]
- uniformity of beads in the reaction solution [1]: uniformity in the solution of beads was maintained
- enzymatic activity (yield of DNA recovered) [2]: high enzymatic activity was exhibited on all reaction surfaces
